Data from the NIST ThermoML archive (doi:10.1021/je1003065).

Assay: mn = molality of the nth substance listed, in mol/kg
Details: Liquid, Vibrating tube method

[Br-].[Li+] [lithium bromide] + CCO
Details | mass density [kg/m3]
313.16 K, 69943 kPa, m1 = 2.272 | 954.83
313.16 K, 70035 kPa, m1 = 0.2335 | 838.62
313.16 K, 80024 kPa, m1 = 2.833 | 989.48
313.16 K, 99649 kPa, m1 = 1.462 | 925.34
313.17 K, 1995 kPa, m1 = 3.368 | 968.15
313.17 K, 5344 kPa, m1 = 3.368 | 970.84
313.17 K, 10286 kPa, m1 = 3.368 | 974.66
313.17 K, 19807 kPa, m1 = 3.368 | 981.61
313.17 K, 29957 kPa, m1 = 3.368 | 988.47
313.17 K, 40021 kPa, m1 = 2.833 | 967.43
313.17 K, 40159 kPa, m1 = 3.368 | 994.86
313.17 K, 49914 kPa, m1 = 3.368 | 1000.58
313.17 K, 80160 kPa, m1 = 2.272 | 960.11
313.17 K, 89963 kPa, m1 = 2.272 | 965.03
313.17 K, 99603 kPa, m1 = 3.368 | 1026.1
313.18 K, 59836 kPa, m1 = 3.368 | 1006.06
313.18 K, 69925 kPa, m1 = 3.368 | 1011.36
313.18 K, 89986 kPa, m1 = 3.368 | 1021.4
313.18 K, 100029 kPa, m1 = 2.272 | 969.91
313.19 K, 1459 kPa, m1 = 0.5972 | 812.65
313.2 K, 79843 kPa, m1 = 3.368 | 1016.39
323.13 K, 5012 kPa, m1 = 0.2335 | 784.23
323.13 K, 79954 kPa, m1 = 0.5972 | 859.95
323.14 K, 10001 kPa, m1 = 0.2335 | 788.63
323.14 K, 19956 kPa, m1 = 2.833 | 946.78
323.14 K, 29926 kPa, m1 = 3.368 | 981.06
323.14 K, 39945 kPa, m1 = 2.272 | 930.75
323.14 K, 39954 kPa, m1 = 1.462 | 885.66
323.14 K, 49912 kPa, m1 = 0.2335 | 819.58
323.14 K, 69926 kPa, m1 = 2.833 | 977.81
323.14 K, 70002 kPa, m1 = 1.462 | 904.07
323.14 K, 70002 kPa, m1 = 3.368 | 1004.85
323.15 K, 1023 kPa, m1 = 2.833 | 931.78
323.15 K, 1026 kPa, m1 = 0.5972 | 803.74
323.15 K, 1032 kPa, m1 = 2.272 | 901.6
323.15 K, 1032 kPa, m1 = 3.368 | 959.14
323.15 K, 1035 kPa, m1 = 1.462 | 855.48
323.15 K, 1203 kPa, m1 = 0.9499 | 825.48
323.15 K, 2012 kPa, m1 = 0.2335 | 781.53
323.15 K, 5014 kPa, m1 = 3.368 | 962.48
323.15 K, 5021 kPa, m1 = 0.5972 | 807.24
323.15 K, 5021 kPa, m1 = 2.833 | 935.15
323.15 K, 5024 kPa, m1 = 2.272 | 905.02
323.15 K, 5106 kPa, m1 = 1.462 | 859.08
323.15 K, 5451 kPa, m1 = 0.9499 | 829.11
323.15 K, 9995 kPa, m1 = 2.833 | 939.18
323.15 K, 10002 kPa, m1 = 2.272 | 909.13
323.15 K, 10023 kPa, m1 = 0.5972 | 811.53
323.15 K, 10026 kPa, m1 = 0.9499 | 832.95
323.15 K, 10065 kPa, m1 = 1.462 | 863.3
323.15 K, 19957 kPa, m1 = 0.9499 | 840.97
323.15 K, 19957 kPa, m1 = 3.368 | 974.07
323.15 K, 20023 kPa, m1 = 0.2335 | 797.12
323.15 K, 29784 kPa, m1 = 2.833 | 953.72
323.15 K, 29928 kPa, m1 = 0.9499 | 848.61
323.15 K, 29975 kPa, m1 = 1.462 | 878.73
323.15 K, 29978 kPa, m1 = 0.5972 | 827.54
323.15 K, 29986 kPa, m1 = 2.272 | 924.09
323.15 K, 39784 kPa, m1 = 0.9499 | 855.75
323.15 K, 39926 kPa, m1 = 0.2335 | 812.55
323.15 K, 39984 kPa, m1 = 3.368 | 987.61
323.15 K, 49921 kPa, m1 = 2.272 | 937
323.15 K, 49926 kPa, m1 = 1.462 | 892.13
323.15 K, 49928 kPa, m1 = 0.9499 | 862.68
323.15 K, 50001 kPa, m1 = 0.5972 | 841.84
323.15 K, 50021 kPa, m1 = 2.833 | 966.58
323.15 K, 59924 kPa, m1 = 3.368 | 999.37
323.15 K, 59926 kPa, m1 = 0.2335 | 825.76
323.15 K, 59957 kPa, m1 = 1.462 | 898.25
323.15 K, 59986 kPa, m1 = 2.833 | 972.34
323.15 K, 60024 kPa, m1 = 0.9499 | 869.15
323.15 K, 69794 kPa, m1 = 0.9499 | 875
323.15 K, 69794 kPa, m1 = 2.272 | 948.43
323.15 K, 69923 kPa, m1 = 0.5972 | 854.32
323.15 K, 79923 kPa, m1 = 1.462 | 909.56
323.15 K, 79924 kPa, m1 = 0.2335 | 837.48
323.15 K, 79926 kPa, m1 = 3.368 | 1010.05
323.15 K, 79935 kPa, m1 = 0.9499 | 880.66
323.15 K, 79953 kPa, m1 = 2.272 | 953.9
323.15 K, 79956 kPa, m1 = 2.833 | 983.13
323.15 K, 89924 kPa, m1 = 3.368 | 1015.15
323.15 K, 89925 kPa, m1 = 0.9499 | 885.81
323.15 K, 89926 kPa, m1 = 2.272 | 959.13
323.15 K, 89956 kPa, m1 = 0.2335 | 843.04
323.15 K, 89958 kPa, m1 = 2.833 | 988.29
323.15 K, 90021 kPa, m1 = 0.5972 | 865.14
323.15 K, 99678 kPa, m1 = 2.833 | 993.25
323.15 K, 99745 kPa, m1 = 0.5972 | 869.74
323.15 K, 99956 kPa, m1 = 3.368 | 1020.21
323.15 K, 99957 kPa, m1 = 1.462 | 920.17
323.15 K, 99965 kPa, m1 = 0.2335 | 847.91
323.15 K, 99969 kPa, m1 = 0.9499 | 890.57
323.15 K, 99985 kPa, m1 = 2.272 | 964.32
323.16 K, 10058 kPa, m1 = 3.368 | 966.55
323.16 K, 19945 kPa, m1 = 0.5972 | 819.71
323.16 K, 19956 kPa, m1 = 2.272 | 916.87
323.16 K, 20003 kPa, m1 = 1.462 | 871.29
323.16 K, 29921 kPa, m1 = 0.2335 | 805.03
323.16 K, 39928 kPa, m1 = 2.833 | 960.39
323.16 K, 49957 kPa, m1 = 3.368 | 993.67
323.16 K, 60002 kPa, m1 = 2.272 | 942.94
323.16 K, 70004 kPa, m1 = 0.2335 | 831.8
323.16 K, 89956 kPa, m1 = 1.462 | 914.93
323.17 K, 39926 kPa, m1 = 0.5972 | 834.87
323.18 K, 59974 kPa, m1 = 0.5972 | 848.31
